From PMC8642306 (Lung cancer (Amsterdam, Netherlands), 2021)
Several values for one entry are separate records, joined by “and”; a condition that tells them apart may be missing. Identical values can stand only once. One block for each molecule: values may come before it.

How the values were obtained:
[1] = test system: head and neck squamous cancer cell lines; details: cited from earlier work
[2] = Plasma pharmacokinetics after oral SNX-5422; assay type: in vivo, human
[3] = test system: patients with solid tumors; details: SNX-5422 alone; cited from earlier work
[4] = test system: patients with advanced lung cancers; details: human, in vivo
[5] = test system: patients with advanced lung cancers; assay: Dose determination; assay type: in vivo, human; details: for Dose-limiting toxicities (DLTs): cycle 1, with carboplatin-paclitaxel
patients with NSCLC = assay: Anti-tumor activity; assay type: in vivo, human
[6] = SNX-5422 doses of 50, 75, and 100 mg/m^2

half-life ([2]; human, plasma, po): ~480 min
SMILES: CC1(C)CC(=O)c2c(C(F)(F)F)nn(-c3ccc(C(N)=O)c(N[C@H]4CC[C@H](O)CC4)c3)c2C1 [SNX-2112]
Activity with carboplatin and paclitaxel [1]: combinatorial activity
AUC0–24 of SNX-2112, dose proportionality [2, 6]: increased in a slightly greater than proportional manner
Maximum plasma concentration of SNX-2112, dose proportionality [2, 6]: increased in approximate proportion to dose

SMILES: CC1(C)CC(=O)c2c(C(F)(F)F)nn(-c3ccc(C(N)=O)c(N[C@H]4CC[C@H](OC(=O)CN)CC4)c3)c2C1 [SNX-5422]
Single-agent maximum tolerated dose (MTD) [3]: 100 mg/m^2
Any treatment-related AE, All Grade [4]: 7 (54) n (%)
Any treatment-related AE, Grade 1 [4]: 1 (8) n (%)
Any treatment-related AE, Grade 2 [4]: 4 (31) n (%)
Any treatment-related AE, Grade 3 [4]: 2 (15) n (%)
Any treatment-related AE, Grade 4 [4]: 0 n (%)
Decreased appetite, All Grade [4]: 2 (15) n (%)
Decreased appetite, Grade 1 [4]: 1 (8) n (%)
Decreased appetite, Grade 2 [4]: 1 (8) n (%)
Decreased appetite, Grade 3 [4]: 0 n (%)
Decreased appetite, Grade 4 [4]: 0 n (%)
Diarrhea, All Grade [4]: 3 (23) n (%)
Diarrhea, Grade 1 [4]: 0 n (%)
Diarrhea, Grade 2 [4]: 1 (8) n (%)
Diarrhea, Grade 3 [4]: 2 (15) n (%)
Diarrhea, Grade 4 [4]: 0 n (%)
Fatigue, All Grade [4]: 2 (15) n (%)
Fatigue, Grade 1 [4]: 1 (8) n (%)
Fatigue, Grade 2 [4]: 1 (8) n (%)
Fatigue, Grade 3 [4]: 0 n (%)
Fatigue, Grade 4 [4]: 0 n (%)
Nausea, All Grade [4]: 2 (15) n (%)
Nausea, Grade 1 [4]: 2 (15) n (%)
Nausea, Grade 2 [4]: 0 n (%)
Nausea, Grade 3 [4]: 0 n (%)
Nausea, Grade 4 [4]: 0 n (%)
Treatment-related decreased appetite [4]: 15%
Treatment-related diarrhea [4]: 23%
Treatment-related fatigue [4]: 15%
Treatment-related grade 3/4 diarrhea [4]: 15%
Treatment-related grade 3/4 nausea [4]: 0%
Treatment-related nausea [4]: 15%
Dose-limiting toxicities (DLTs) ([5]; 50 mg/m^2 cohort (n=3)): no DLTs
Dose-limiting toxicities (DLTs) ([5]; 75 mg/m^2 cohort (n=4)): no DLTs
Maximum tolerated dose (MTD) of SNX-5422 ([5]; qod, in combination with carboplatin (AUC 5) and paclitaxel (175 mg/m^2)): 100 mg/m^2
Concentrations of SNX-5422 in samples collected after dosing ([2]; oral SNX-5422): no measurable concentrations
Duration of disease control on single-agent maintenance (patients with NSCLC; HER2, RET, KRAS, and EGFR-mutations): 4–12 months
Time on SNX-5422 maintenance (patients with NSCLC; another patient with KRAS-mutant NSCLC, unconfirmed response): ~ 5 months
Time on SNX-5422 maintenance (patients with NSCLC; one patient with HER2-mutant NSCLC, partial response): 12 months and ~ 12 months
Time on SNX-5422 maintenance prior to progression (patients with NSCLC; one patient with KRAS-mutant NSCLC, partial response): ~ 7 months
